≈ marks a conversion by molar mass, not a printed value.
Key:
M. avium complex = assay: MIC in modified 7H10 broth against M. avium complex (Tables 3, 4); format: cell-based, Mycobacterium avium; set-up: unit not given here
M. tuberculosis [1] = assay: Murine model of tuberculosis, combination with KRM-1648 (RLZ) (FIG. 2); format: in vivo; conditions: mice, in combination with KRM-1648 (Rifalazil, RLZ)
M. tuberculosis [2] = assay: microbe, parasite or virus in culture; format: cell-based, Mycobacterium tuberculosis; set-up: MIC, pansusceptible strain, pH 5.5 / MIC, Pansusceptible strain, pH 6.0 / MIC, Pansusceptible strain, pH 6.8: unit not given here; conditions: for MIC, Pansusceptible strain, pH 6.0 / MIC, Pansusceptible strain, pH 6.8: 7H12 BACTEC broth, three pansusceptible strains; for MIC: Mycobacterium tuberculosis, same at pH 6.0 and 6.8
M. tuberculosis [3] = assay: MIC in modified 7H10 broth against M. tuberculosis (Table 3); format: cell-based, Mycobacterium tuberculosis; set-up: MIC, M. tuberculosis ATCC 35801 / MIC, M. tuberculosis ATCC 27294: unit not given here; conditions: for MIC, M. tuberculosis ATCC 27294: ATCC 27294 (H37RV, PZA susceptible), pH 5.8; for MIC, M. tuberculosis ATCC 35801: ATCC 35801, pH 5.8
M. kansasii = assay: MIC in modified 7H10 broth against M. kansasii (Tables 3, 4); format: cell-based, Mycobacterium kansasii; set-up: unit not given beside the values; conditions: clinical isolate S
Mycobacterium avium = conditions: Heifets et al, Am. Rev. Resp. Dis. 134: 1287-1288 (1986); cited from earlier work
[4] = tested on: Mtb organisms which have been phagocytized; conditions: reduced efficacy after 4 to 7 days; cited from earlier work
[5] = cited from earlier work
[6] = Table 3, ATCC 49601 (serotype 1), modified 7H10 broth, pH 5.8
[7] = Table 3, strain 101 (serotype 1), modified 7H10 broth, pH 5.8
[8] = Table 3, modified 7H10 broth, pH 5.8

| SMILES | MIC, M. avium complex ATCC 49601 (M. avium complex; [6]) | MIC, M. avium complex 101 (M. avium complex; [7]) | MIC, M. avium complex ATCC 49601 (M. avium complex; Table 4, ATCC 49601) | MIC, M. avium complex 101 (M. avium complex; Table 4, strain 101) | MIC, M. tuberculosis ATCC 27294 (M. tuberculosis [3]) | MIC, M. tuberculosis ATCC 35801 (M. tuberculosis [3]) | MIC, M. kansasii S (M. kansasii; [8]) | MIC, M. kansasii S (M. kansasii; Table 4) | further results |
| --- | --- | --- | --- | --- | --- | --- | --- | --- | --- |
| O=C(NCN1CCCC1)c1cnccn1 [Compound 1, pyrazine-2-carboxylic acid (pyrrolidin-1-ylmethyl)-amide] | >128 | >128 | >128 | >128 | 16 | 8 | 128 | 128 | reduction of CFUs / infection in murine model of tuberculosis (M. tuberculosis [1]): superior or equivalent to PZA in reducing CFUs; MIC, Pansusceptible strain, pH 6.0 (M. tuberculosis [2]): 100; MIC, Pansusceptible strain, pH 6.8 (M. tuberculosis [2]): 100; MIC, pansusceptible strain, pH 5.5 (M. tuberculosis [2]; pansusceptible strain, pH 5.5): 50 |
| CCN(CC)CNC(=O)c1cnccn1 [Compound 2, pyrazine-2-carboxylic acid diethylaminomethyl-amide] | 128 | 128 |  |  | 16 | 2 | 128 |  | reduction of CFUs / infection in murine model of tuberculosis (M. tuberculosis [1]): superior or equivalent to PZA in reducing CFUs; MIC, Pansusceptible strain, pH 6.0 (M. tuberculosis [2]): 100; MIC, Pansusceptible strain, pH 6.8 (M. tuberculosis [2]): 100; MIC (M. tuberculosis [2]; 7H12 broth): 100 µg/mL (≈ 480 µM) |
| O=C(NCN1CCOCC1)c1cnccn1 [Compound 4, (morpholin-4-ylmethyl)-amide] | >128 | >128 | >128 | 128 | 32 | 16 | 128 | 128 |  |
| NC(=O)c1cnc(Cl)cn1 [Compound 5-Chloro-PZA, 5-chloro-pyrazinamide, reference compound] | 32 | 32 | 32 | 32 | 16 | 16 | 32 | 32 |  |
| CCCCN(CC)CNC(=O)c1cnccn1 [Compound 5] |  |  | >128 | 128 |  |  |  | >128 |  |
| CCCCN(C)CNC(=O)c1cnccn1 [Compound 6] |  |  | >128 | 128 |  |  |  | 128 |  |
| CN1CCN(CNC(=O)c2cnccn2)CC1 [Compound 7, (piperazin-1-ylmethyl)-amide] |  |  | >128 | >128 |  |  |  | >128 |  |
| CN(CNC(=O)c1cnccn1)Cc1ccccc1 [Compound 8, [(benzyl-methyl-amino)-methyl]-amide] |  |  | 128 | 128 |  |  |  | 128 |  |
| CCCN(CCC)CNC(=O)c1cnccn1 [Compound 9, dipropylaminomethyl-amide] |  |  | >128 | 128 |  |  |  | 128 |  |
| CCCCN(CCCC)CNC(=O)c1cnccn1 [Compound 10] |  |  | >128 | >128 |  |  |  | >128 |  |
| CCN(CC)CNC(=O)c1cnc(N(CC)CC)cn1 [Compound 17, 5-diethylamino-pyrazinoic acid diethylaminomethyl-amide] | >128 | (>128 |  |  | 64 | 16 | >128 |  |  |
| O=C(NCN1CCOCC1)c1cnccn1 [MZA, morphazinamide] |  |  |  |  |  |  |  |  | MIC (M. tuberculosis [2]; 7H12 broth): 100 µg/mL (≈ 450 µM) |
| NC(=O)c1cnccn1 [PZA, Pyrazinamide] | >2048 | >2048 | >2048 | >2048 | 16 | 32 | 2048 | 2048 | reduction of CFUs / infection in murine model of tuberculosis (M. tuberculosis [1]): effective in reducing infection; difference in MICs under different pH conditions (M. tuberculosis [2]; 7H12 broth, pH 6.0 v. 6.8): dramatic difference; activity against Mycobacterium avium (Mycobacterium avium): Neither is it active; activity in macrophages [4]: either weakly or clearly bacteriostatic in macrophages; pKa [5]: 0.5 |

— patent publication US6399607B1, “Aminomethylene amide analogs of pyrazinamide with intracellular antimycobacterial activity against pyrazinamide-resistant mycobacteria combined with a rifamycin” (priority 1999, dated 2002)
